Target: T1, DsuzOr22a (Drosophila suzukii, UniProt A0AB39ZTG6)
T1 construct: gene LOC108019602; full-length cDNA in pJFRC81 (GFP removed), UAS line expressed in D. melanogaster ab3A empty neuron (Or22ab-Gal4); with Odorant receptor coreceptor (Drosophila melanogaster, endogenous to the host neuron)
T1 sequence (A0AB39ZTG6 1-397): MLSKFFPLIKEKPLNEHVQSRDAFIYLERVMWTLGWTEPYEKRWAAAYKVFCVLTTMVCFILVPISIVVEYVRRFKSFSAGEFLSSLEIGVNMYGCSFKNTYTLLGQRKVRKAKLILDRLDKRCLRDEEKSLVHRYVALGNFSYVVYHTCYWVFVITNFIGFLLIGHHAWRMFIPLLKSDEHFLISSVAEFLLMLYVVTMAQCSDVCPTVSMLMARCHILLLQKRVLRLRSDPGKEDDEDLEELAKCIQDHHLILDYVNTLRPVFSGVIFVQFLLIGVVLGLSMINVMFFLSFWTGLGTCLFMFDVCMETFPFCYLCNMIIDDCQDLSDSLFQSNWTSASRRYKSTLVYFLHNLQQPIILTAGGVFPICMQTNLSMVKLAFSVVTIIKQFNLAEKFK
T1 sequence (Q9VNB5 1-486 partner): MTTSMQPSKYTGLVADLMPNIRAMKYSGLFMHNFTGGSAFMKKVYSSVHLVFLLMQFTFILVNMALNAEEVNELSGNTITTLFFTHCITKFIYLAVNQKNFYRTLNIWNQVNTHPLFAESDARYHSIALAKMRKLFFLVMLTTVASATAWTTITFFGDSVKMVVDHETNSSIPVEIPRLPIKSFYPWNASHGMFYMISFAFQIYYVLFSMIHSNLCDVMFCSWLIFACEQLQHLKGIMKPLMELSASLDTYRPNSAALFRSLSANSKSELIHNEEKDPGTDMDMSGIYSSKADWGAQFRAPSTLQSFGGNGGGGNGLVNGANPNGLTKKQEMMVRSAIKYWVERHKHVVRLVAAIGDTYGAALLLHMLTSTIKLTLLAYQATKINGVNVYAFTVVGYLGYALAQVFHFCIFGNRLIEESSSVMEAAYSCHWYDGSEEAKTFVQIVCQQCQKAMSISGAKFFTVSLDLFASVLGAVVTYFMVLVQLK
Assay: single sensillum recording, empty neuron
Format: cell-based
Settings: odorant 10^-4 dilution in hexane

SMILES	responses (spikes/s)	responses (spikes/s) (also dilution series)
CC(=O)OCCC(C)C [isoamyl acetate]	toward several ripening fruit esters such as isobutyl acetate, butyl acetate, and isoamyl acetate	–
CCCCOC(C)=O [butyl acetate]	toward several ripening fruit esters such as isobutyl acetate, butyl acetate, and isoamyl acetate	–
CC(=O)OCC(C)C [isobutyl acetate]	–	Or22a, which has shifted its tuning toward several ripening fruit esters such as isobutyl acetate
